{"source": "patent US20200268832A1", "about": "“COMPOSITIONS FOR DELIVERY TO AND TREATMENT OF ATHEROSCLEROTIC PLAQUES” (Sanford Burnham Prebys Medical Discovery Institute, priority 2015, published 2020)", "molecular_target": "T1, p32 protein (Homo sapiens, UniProt Q07021)", "T1 construct": "6xHis; host or cells: Rosetta-gami-2 cells (Novagen); an E. coli strain by own knowledge", "T1 sequence (Q07021 74-282)": "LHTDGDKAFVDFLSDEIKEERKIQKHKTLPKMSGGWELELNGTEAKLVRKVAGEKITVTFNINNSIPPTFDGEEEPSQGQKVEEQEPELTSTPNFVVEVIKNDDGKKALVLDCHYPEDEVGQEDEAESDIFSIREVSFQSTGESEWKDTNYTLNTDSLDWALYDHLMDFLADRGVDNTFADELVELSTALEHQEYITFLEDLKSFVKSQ", "assay": "Fluorescence polarization binding of FAM-labeled peptides to p32 (KD)", "conditions": "affinity of binding to p32", "experimental": "FIGS. 2A-2D are graphs showing FP- and phage binding-based validation of p32 binding peptides and hit compounds. […] Measurements were performed with PheraStar FS plate reader (BMG Labtech, Ortenberg, Germany) on 384-well plate. (B) Affinity of the 7 hit compounds in dose-dependent (8.25 μM to 100 μM) inhibition of FAM-TT1 binding to p32 in FP assay. (C) Assessment of hit compound binding to a non-target secondary protein, NRP-1, to determine the specificity of the hit compounds in FP assay. A known NRP-1 binding peptide, RPARPAR (SEQ ID NO:18), was used as a control. (D) Effect of the hit compounds on the TT1 phage binding to p32 protein. TT1 phage binding to p32 in the presence of 100 μM hit compounds was determined in ELISA-type of binding assay. Each data point presents average±S.D., n=4.\nFIG. 6 is a graph showing the effect of buffer solution on interaction of TT1 and p32. […] The binding was measured by fluorescence polarization (FP) and observed as increased FP value. Binding constants (KD) were calculated by fitting the binding curves into Michaelis-Menten kinetics. […]\nFluorescence polarization (FP)-based assay was used for solution-based screening of compound libraries for p32 binding compounds. […] The protein was purified by IMAC using HIS-select resin (Sigma) with an imidizole gradient from 20-300 mM and eluted fractions were analyzed on analytical SDS-PAGE. […]", "note": "Where a SMILES comes first, the peptide text is derived from it. Bridges are numbered along the chain shown (N, C = ends).", "data": [{"smiles": "C[C@@H]1NC(=O)CNC(=O)[C@H](CCCNC(=N)N)NC(=O)[C@H](CCCCN)NC(=O)[C@@H](N)CSSC[C@@H](C(=O)O)NC(=O)[C@H]([C@@H](C)O)NC(=O)[C@H](CO)NC(=O)[C@H](CCCNC(=N)N)NC1=O", "note": "[TT1, CKRGARSTC] (H-CKRGARSTC-OH; disulfide 1-9)", "values": [{"measurement": "Kd", "value": 2300, "unit": "nM"}]}]}
